Test results published in US20210038587A1, “METHODS AND COMPOSITIONS FOR TREATING NON-ERK MAPK PATHWAY INHIBITOR-RESISTANT CANCERS” (BIOMED VALLEY DISCOVERIES, INC., priority 2013, published 2021).
Values after ≈ are worked out from the molar mass of the structure shown. Where two headings read alike, the source gives them in different places.

Legend:
[1] = tested on: PMA stimulated ERK activity (RSK-1 phosphorylation); assay: Phase I study: pharmacodynamic target inhibition (pRSK in patient whole blood); type: in vivo; conditions: Homo sapiens, 360 h, prior to Day 15 dosing
[2] = Phase I study: pharmacokinetic analysis; type: in vivo, human; conditions: for AUC(0-t) / Cmax: plasma
Description: Blood samples were collected prior to dosing, and then at 0.5 (±5 min), 1 (±5 min), 2 (±10 min), 4 (±10 min), 6 (±10 min), 8 (±10 min), and 12 (±2 hr) hours on Day 1 (Visit 2; baseline/initiation of treatment) and Day 15 (Visit 4; at steady state) after the morning dose. On Day 22, prior to dose administration, a final blood sample was collected for pharmacokinetic analyses. Urine samples were collected predose and at the 1- to 6-hour and 6- to 12-±2-hour intervals postdose on Days 1 and 15. […] Standard pharmacokinetic parameters were obtained using Phoenix WinNonlin (Pharsight) with a noncompartmental method. Relationship between dose and exposure was calculated using standard least-squares regression analysis.

[3] = tested on: PMA-stimulated RSK1 phosphorylation; assay: Ex vivo inhibition of PMA-stimulated RSK1 phosphorylation in human whole blood; type: cell-based
upstaged A375 xenografts = assay: Upstaged A375 xenograft model, BVD-523 in combination with dabrafenib; type: in vivo, mice; conditions: 100 mg/kg BID
Description: Combination dosing was stopped on Day 20 to monitor for tumor regrowth. Animals were monitored individually and euthanized when each tumor reached an endpoint volume of 2000 mm^3, or the final day (Day 45), whichever came first, and median time to endpoint (TTE) calculated. The combination was also evaluated in an upstaged A375 model where larger tumors in the range 228-1008 mm^3 were evaluated. Here, mice were randomized into 1 group (Group 1) of 14 and 4 groups (Groups 2-5) of 20. […] Tumors were measured twice weekly. Combination dosing was stopped on Day 42 to monitor for tumor regrowth through study end (Day 60). Treatment outcome was determined from % TGD, defined as the percent increase in median TTE for treated versus control mice, with differences between groups analyzed via log rank survival analysis. […] Mice were also monitored for CR and PR responses. Animals with a CR at the end of the study were additionally classified as TFS.

CDK6/cycinD3 = CDK6/cycinD3 (Homo sapiens, UniProt Q00534); assay: Kinase counter-screen, Ki; type: biochemical; conditions: apparent Ki
Sequence of CDK6/cycinD3 (Q00534 whole entry, species assumed): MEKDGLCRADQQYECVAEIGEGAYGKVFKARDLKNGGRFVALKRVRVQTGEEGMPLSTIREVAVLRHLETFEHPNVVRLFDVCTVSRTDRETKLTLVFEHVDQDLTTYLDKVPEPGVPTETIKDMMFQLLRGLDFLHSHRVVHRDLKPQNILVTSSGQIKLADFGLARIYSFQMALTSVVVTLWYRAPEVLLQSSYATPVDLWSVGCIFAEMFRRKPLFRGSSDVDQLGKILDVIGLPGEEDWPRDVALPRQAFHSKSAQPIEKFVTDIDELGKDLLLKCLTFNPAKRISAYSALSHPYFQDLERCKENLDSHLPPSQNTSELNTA
Sequence of CDK6/cycinD3 (P30281 whole entry partner, species assumed): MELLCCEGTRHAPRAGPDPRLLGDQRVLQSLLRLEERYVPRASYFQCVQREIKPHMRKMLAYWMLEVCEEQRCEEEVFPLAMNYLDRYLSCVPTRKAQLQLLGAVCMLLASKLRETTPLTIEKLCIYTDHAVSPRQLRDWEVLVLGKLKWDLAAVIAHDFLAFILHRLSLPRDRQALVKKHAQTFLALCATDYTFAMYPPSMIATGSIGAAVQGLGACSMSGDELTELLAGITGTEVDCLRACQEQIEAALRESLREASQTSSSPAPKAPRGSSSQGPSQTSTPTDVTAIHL
Description: (§1) The ATP concentrations were approximately equal to the Km in all assays.

CDK1/cyclinB = CDK1/cyclinB (Homo sapiens, UniProt P06493); assay: Kinase counter-screen, Ki; type: biochemical; conditions: apparent Ki
Sequence of CDK1/cyclinB (P06493 whole entry, species assumed): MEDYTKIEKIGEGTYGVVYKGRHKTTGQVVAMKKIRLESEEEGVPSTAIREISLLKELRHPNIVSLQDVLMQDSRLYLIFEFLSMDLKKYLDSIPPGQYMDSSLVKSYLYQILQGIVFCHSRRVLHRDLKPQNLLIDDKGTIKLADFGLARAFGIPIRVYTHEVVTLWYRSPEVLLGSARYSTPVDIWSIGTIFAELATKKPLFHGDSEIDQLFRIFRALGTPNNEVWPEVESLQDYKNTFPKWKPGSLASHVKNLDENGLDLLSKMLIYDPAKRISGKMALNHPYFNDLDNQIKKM
Sequence of CDK1/cyclinB (P14635 whole entry partner, species assumed): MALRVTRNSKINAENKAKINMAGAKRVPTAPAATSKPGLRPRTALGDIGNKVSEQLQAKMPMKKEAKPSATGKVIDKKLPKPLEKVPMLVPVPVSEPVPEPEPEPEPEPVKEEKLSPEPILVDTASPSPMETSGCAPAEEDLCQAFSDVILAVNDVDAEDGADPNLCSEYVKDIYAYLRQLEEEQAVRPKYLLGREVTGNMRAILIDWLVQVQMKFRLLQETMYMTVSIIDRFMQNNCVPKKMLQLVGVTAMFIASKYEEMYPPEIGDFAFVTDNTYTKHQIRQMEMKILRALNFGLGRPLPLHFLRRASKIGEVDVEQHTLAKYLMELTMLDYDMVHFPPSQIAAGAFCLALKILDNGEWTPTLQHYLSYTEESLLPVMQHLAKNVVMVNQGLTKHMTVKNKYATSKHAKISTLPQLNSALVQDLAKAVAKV
Description: as §1

Colo205 xenografts = assay: BVD-523 activity in Colo205 xenografts
A375 xenografts = assay: Antitumor activity in A375 xenografts, monotherapy; type: in vivo, mice; conditions: 14 days
Description: For measurement of antitumor activity in A375 xenografts, xenografts were initiated with A375 cells maintained by serial subcutaneous transplantation in female athymic nude mice. Each test mouse received an A375 tumor fragment (1 mm^3) implanted subcutaneously in the right flank. Once tumors reached target size (80-120 mm^3), animals were randomized into treatment and control groups, and drug treatment was initiated.
Oral temozolomide was administered as a positive reference compound at 75 or 175 mg/kg once daily (QD) for a total of five treatments (QD×5).

JNK2α = JNK2α (Homo sapiens, UniProt P45984); assay: Kinase counter-screen, Ki; type: biochemical; conditions: apparent Ki
Sequence of JNK2α (P45984 whole entry): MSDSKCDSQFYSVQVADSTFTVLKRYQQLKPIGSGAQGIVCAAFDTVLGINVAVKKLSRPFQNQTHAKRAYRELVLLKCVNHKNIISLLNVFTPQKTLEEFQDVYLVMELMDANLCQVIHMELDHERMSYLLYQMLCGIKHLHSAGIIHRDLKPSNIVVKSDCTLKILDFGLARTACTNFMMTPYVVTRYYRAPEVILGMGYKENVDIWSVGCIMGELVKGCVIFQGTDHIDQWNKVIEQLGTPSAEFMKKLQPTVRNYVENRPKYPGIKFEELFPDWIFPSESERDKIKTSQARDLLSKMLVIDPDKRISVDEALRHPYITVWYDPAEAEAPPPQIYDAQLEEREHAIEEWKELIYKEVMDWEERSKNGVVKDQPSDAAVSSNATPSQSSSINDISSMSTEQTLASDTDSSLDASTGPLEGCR
Description: as §1

P38δ = P38δ (Homo sapiens, UniProt O15264); assay: Kinase counter-screen, Ki; type: biochemical; conditions: apparent Ki
Sequence of P38δ (O15264 whole entry): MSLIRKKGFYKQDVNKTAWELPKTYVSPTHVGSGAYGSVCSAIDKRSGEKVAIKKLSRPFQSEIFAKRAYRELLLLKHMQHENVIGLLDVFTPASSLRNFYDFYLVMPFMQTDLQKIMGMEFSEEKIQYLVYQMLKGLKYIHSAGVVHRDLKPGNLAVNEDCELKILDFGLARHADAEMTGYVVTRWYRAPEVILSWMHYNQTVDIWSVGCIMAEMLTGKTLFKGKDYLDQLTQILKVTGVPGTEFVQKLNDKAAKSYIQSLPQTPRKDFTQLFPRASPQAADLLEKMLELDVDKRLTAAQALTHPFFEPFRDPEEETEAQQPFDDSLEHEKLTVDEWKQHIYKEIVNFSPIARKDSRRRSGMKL
Description: as §1

ERK1 = ERK1 (Homo sapiens, UniProt P27361); assay: biochemical
Sequence of ERK1 (P27361 whole entry): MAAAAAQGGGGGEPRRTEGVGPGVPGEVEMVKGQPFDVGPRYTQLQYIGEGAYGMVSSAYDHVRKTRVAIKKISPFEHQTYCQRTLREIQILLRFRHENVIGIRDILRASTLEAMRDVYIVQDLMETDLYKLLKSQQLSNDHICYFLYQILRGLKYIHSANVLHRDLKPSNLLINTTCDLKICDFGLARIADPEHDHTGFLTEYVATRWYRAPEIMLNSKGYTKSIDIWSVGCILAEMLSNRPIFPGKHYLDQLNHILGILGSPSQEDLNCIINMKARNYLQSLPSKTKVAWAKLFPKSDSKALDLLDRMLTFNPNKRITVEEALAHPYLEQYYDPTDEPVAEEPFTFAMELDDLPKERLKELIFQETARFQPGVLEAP
Description: The reaction was initiated by the addition of 65 μM of ATP. Decreased absorbance rate (340 nm) was monitored and the IC50 was determined as a function of inhibitor concentration.

CDK5/p35 = CDK5/p35 (Homo sapiens, UniProt Q00535); assay: Kinase counter-screen, Ki; type: biochemical; conditions: apparent Ki
Sequence of CDK5/p35 (Q00535 whole entry, species assumed): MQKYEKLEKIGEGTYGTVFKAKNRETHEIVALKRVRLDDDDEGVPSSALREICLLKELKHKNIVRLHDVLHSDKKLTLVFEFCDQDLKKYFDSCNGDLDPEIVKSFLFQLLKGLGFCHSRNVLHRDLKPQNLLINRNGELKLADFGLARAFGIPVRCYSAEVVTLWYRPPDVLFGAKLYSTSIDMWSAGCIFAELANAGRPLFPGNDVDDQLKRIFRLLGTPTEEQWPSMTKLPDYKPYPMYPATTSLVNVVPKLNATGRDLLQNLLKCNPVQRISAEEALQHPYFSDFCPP
Sequence of CDK5/p35 (Q15078 whole entry partner, species assumed): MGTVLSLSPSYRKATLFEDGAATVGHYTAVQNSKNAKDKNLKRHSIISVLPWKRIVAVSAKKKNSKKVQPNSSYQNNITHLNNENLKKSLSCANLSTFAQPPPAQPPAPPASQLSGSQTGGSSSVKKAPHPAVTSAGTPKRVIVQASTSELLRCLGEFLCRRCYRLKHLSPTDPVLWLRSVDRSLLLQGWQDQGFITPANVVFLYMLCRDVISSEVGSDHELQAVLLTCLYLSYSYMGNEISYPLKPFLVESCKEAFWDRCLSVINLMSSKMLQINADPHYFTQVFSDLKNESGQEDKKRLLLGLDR
Description: as §1

RKO colorectal cell line = assay: Western blot of nuclear and cytoplasmic fractions; type: cell-based; conditions: versus DMSO
Description: For Western blot analysis, A375 cells were seeded onto 10 cm dishes in Dulbecco's Modified Eagle's Medium plus 10% (v/v) FBS. Cells were allowed to adhere overnight prior to the addition of test compound or vehicle. For experiments with RKO cells, these cells were seeded in 6-well plates or 10 cm dishes with McCoy's 5A+10% (v/v) FBS. Cells were then treated at the desired concentration and duration. Cells were harvested by trypsinization, pelleted, and snap frozen. Lysates were prepared with RIPA buffer supplemented with protease and phosphatase inhibitor cocktails (Roche), clarified by centrifugation at 11,000 rpm for 10 minutes, and quantitated by bicinchoninic acid assay. Samples were resolved by SDS-PAGE, blotted onto polyvinylidene difluoride membranes, and probed using antibodies (i.e., pRB [Ser780], cat. no. 9307; CCND1, cat. no. ab6152; BCL-xL, cat. no. 2762; PARP, cat. no. 9542; DUSP6, cat. no. 3058S) directed to the indicated targets.
In resting cells, ERK1/2 localizes to the cytoplasm, and once stimulated pERK1/2 migrates to target organelles, particularly the nucleus where transcriptional targets are activated (Wainstein et al. 2016). In DMSO-treated control cells, pERK1/2 is evident in both nuclear and cytoplasmic fractions, which is likely reflective of MAPK pathway activity due to the presence of BRAF^V600E in this cell line.

CC(C)Nc1cc(-c2c[nH]c(C(=O)N[C@H](CO)c3cccc(Cl)c3)c2)c(Cl)cn1 [BVD-523]
inhibition at 10 mg ([1]; 10 mg BID): 0%
inhibition at 900 mg ([1]; 900 mg BID): 93 ± 8%
urinary excretion within 12 hours postdose ([2]; first dose and steady state, all dose levels): < 0.2 % of the dose
CL renal ([2]; human, plasma and urine, oral, n≥3, read-out: mean renal clearance values): 0.248 to 0.5 mL/min
AUC(0-t) ([2]; human, oral, 10 mg, 10 mg BID, Day 1, read-out: AUC0-12): 220 ng·h/mL
Cmax ([2]; human, oral, 10 mg, 10 mg BID, Day 1, read-out: Cmax): 48.2 ng/mL
AUC(0-t) ([2]; human, oral, 10 mg, 10 mg BID, Day 15, read-out: AUC0-12): 234 ng·h/mL
Cmax ([2]; human, oral, 10 mg, 10 mg BID, Day 15, read-out: Cmax): 45.7 ng/mL
AUC(0-t) ([2]; human, oral, 20 mg, 20 mg BID, Day 1, read-out: AUC0-12): 91.7 ng·h/mL
Cmax ([2]; human, oral, 20 mg, 20 mg BID, Day 1, read-out: Cmax): 14.9 ng/mL
AUC(0-t) ([2]; human, oral, 20 mg, 20 mg BID, Day 15, read-out: AUC0-12): 98.7 ng·h/mL
Cmax ([2]; human, oral, 20 mg, 20 mg BID, Day 15, read-out: Cmax): 15.8 ng/mL
AUC(0-t) ([2]; human, oral, 40 mg, 40 mg BID, Day 1, read-out: AUC0-12): 614 ng·h/mL
Cmax ([2]; human, oral, 40 mg, 40 mg BID, Day 1, read-out: Cmax): 100 ng/mL
AUC(0-t) ([2]; human, oral, 40 mg, 40 mg BID, Day 15, read-out: AUC0-12): 999 ng·h/mL
Cmax ([2]; human, oral, 40 mg, 40 mg BID, Day 15, read-out: Cmax): 191 ng/mL
AUC(0-t) ([2]; human, oral, 150 mg, 150 mg BID, Day 1, read-out: AUC0-12): 817 ng·h/mL
Cmax ([2]; human, oral, 150 mg, 150 mg BID, Day 1, read-out: Cmax): 133 ng/mL
AUC(0-t) ([2]; human, oral, 150 mg, 150 mg BID, Day 15, read-out: AUC0-12): 2770 ng·h/mL
Cmax ([2]; human, oral, 150 mg, 150 mg BID, Day 15, read-out: Cmax): 326 ng/mL
AUC(0-t) ([2]; human, oral, 300 mg, 300 mg BID, Day 1, read-out: AUC0-12 ± SD): 4110 ± 1140 ng·h/mL
Cmax ([2]; human, oral, 300 mg, 300 mg BID, Day 1, read-out: Cmax ± SD): 765 ± 234 ng/mL
AUC(0-t) ([2]; human, oral, 300 mg, 300 mg BID, Day 15, read-out: AUC0-12 ± SD): 4460 ± 2460 ng·h/mL
Cmax ([2]; human, oral, 300 mg, 300 mg BID, Day 15, read-out: Cmax ± SD): 586 ± 257 ng/mL
AUC(0-t) ([2]; human, oral, 600 mg, 600 mg BID, Day 1, read-out: AUC0-12 ± SD): 2750 ± 1740 ng·h/mL
AUC(0-t) ([2]; human, oral, 600 mg, 600 mg BID, Day 15, read-out: AUC0-12 ± SD): 24400 ± 16200 ng·h/mL
Cmax ([2]; human, oral, 600 mg, 600 mg BID, Day 15, read-out: Cmax ± SD): 2750 ± 170 ng/mL
AUC(0-t) ([2]; human, oral, 750 mg, 750 mg BID, Day 1, read-out: AUC0-12 ± SD): 10700 ng·h/mL
Cmax ([2]; human, oral, 750 mg, 750 mg BID, Day 1, read-out: Cmax ± SD): 1450 ± 539 ng/mL
AUC(0-t) ([2]; human, oral, 750 mg, 750 mg BID, Day 15, read-out: AUC0-12 ± SD): 23300 ng·h/mL
Cmax ([2]; human, oral, 750 mg, 750 mg BID, Day 15, read-out: Cmax ± SD): 2290 ng/mL
AUC(0-t) ([2]; human, oral, 750 mg, Day 15, reduced from 750 mg to 450 mg/dose, read-out: AUC0-12, individual subject): 10700 ng·h/mL
Cmax ([2]; human, oral, 750 mg, Day 15, reduced from 750 mg to 450 mg/dose, read-out: Cmax, individual subject): 1300 ng/mL
AUC(0-t) ([2]; human, oral, 900 mg, 900 mg BID, Day 1, read-out: AUC0-12 ± SD): 10800 ng·h/mL
Cmax ([2]; human, oral, 900 mg, 900 mg BID, Day 1, read-out: Cmax ± SD): 1430 ± 1010 ng/mL
AUC(0-t) ([2]; human, oral, 900 mg, 900 mg BID, Day 15, read-out: AUC0-12 ± SD): 15900 ng·h/mL
Cmax ([2]; human, oral, 900 mg, 900 mg BID, Day 15, read-out: Cmax ± SD): 1720 ± 328 ng/mL
dose-exposure relationship (Cmax and AUC) ([2]; up to 600 mg BID): linear and dose proportional
EC50 ([3]; Homo sapiens, human whole blood (HWB), read-out: EC50 based on the ex vivo whole blood assay): ~0.2 µg/mL (≈ 0.462 µM)
inhibition at 10 µM ([3]; Homo sapiens, read-out: maximum inhibition of RSK phosphorylation): 75.8 ± 2.7%
IC50 ([3]; Homo sapiens, whole blood from healthy volunteers, read-out: mean IC50, PMA-stimulated RSK phosphorylation): 461 ± 20 nM
EC50 based on the ex vivo whole blood assay ([3]; human whole blood (HWB)): 0.2 µg/mL (≈ 0.462 µM)
PRs (upstaged A375 xenografts): 2
Ki (CDK6/cycinD3): 90 nM
Ki (CDK1/cyclinB): 70 nM
T/C (Colo205 xenografts; 25 mg/kg BID): 25.2%
mean tumor regression T/Ti (Colo205 xenografts; 50 mg/kg BID): −48.2%
mean tumor regression T/Ti (Colo205 xenografts; 75 mg/kg BID): −77.2%
mean tumor regression T/Ti (Colo205 xenografts; 100 mg/kg BID): −92.3%
tumor growth inhibition (TGI) (A375 xenografts; 50 mg/kg BID p.o.): 71%
tumor growth inhibition (TGI) (A375 xenografts; 100 mg/kg BID p.o.): 99%
Ki (JNK2α): 650 nM
Ki (P38δ): 240 nM
Ki (ERK1; Ki against recombinant ERK1, tight-binding): < 0.3 nM
Ki (ERK1; Ki, ERK1): ≤ 0.3 nM
Ki (CDK5/p35): 90 nM

O=C(Nc1ccc2[nH]nc(-c3ccncc3)c2c1)[C@@H]1CCN(CC(=O)N2CCN(c3ccc(-c4ncccn4)cc3)CC2)C1 [SCH772984]
pERK1/2 in nuclear and cytoplasmic fractions (RKO colorectal cell line): inhibited phosphorylation of ERK1/2 and RSK
